Experimental data reported in US12226412B2, “Heteroaryl-ketone fused azadecalin glucocorticoid receptor modulators” (Corcept Therapeutics, Inc., priority 2012, dated 2025).

Columns and labels:
[1] = target: T1, human recombinant GR (Homo sapiens, UniProt P04150); test: Human glucocorticoid receptor (GR) fluorescence polarisation (FP) binding assay; settings: human recombinant GR, fluorescence polarisation binding assay; read-out: GR binding
T1 construct: purchased PanVera P2812
T1 sequence (P04150 1-777): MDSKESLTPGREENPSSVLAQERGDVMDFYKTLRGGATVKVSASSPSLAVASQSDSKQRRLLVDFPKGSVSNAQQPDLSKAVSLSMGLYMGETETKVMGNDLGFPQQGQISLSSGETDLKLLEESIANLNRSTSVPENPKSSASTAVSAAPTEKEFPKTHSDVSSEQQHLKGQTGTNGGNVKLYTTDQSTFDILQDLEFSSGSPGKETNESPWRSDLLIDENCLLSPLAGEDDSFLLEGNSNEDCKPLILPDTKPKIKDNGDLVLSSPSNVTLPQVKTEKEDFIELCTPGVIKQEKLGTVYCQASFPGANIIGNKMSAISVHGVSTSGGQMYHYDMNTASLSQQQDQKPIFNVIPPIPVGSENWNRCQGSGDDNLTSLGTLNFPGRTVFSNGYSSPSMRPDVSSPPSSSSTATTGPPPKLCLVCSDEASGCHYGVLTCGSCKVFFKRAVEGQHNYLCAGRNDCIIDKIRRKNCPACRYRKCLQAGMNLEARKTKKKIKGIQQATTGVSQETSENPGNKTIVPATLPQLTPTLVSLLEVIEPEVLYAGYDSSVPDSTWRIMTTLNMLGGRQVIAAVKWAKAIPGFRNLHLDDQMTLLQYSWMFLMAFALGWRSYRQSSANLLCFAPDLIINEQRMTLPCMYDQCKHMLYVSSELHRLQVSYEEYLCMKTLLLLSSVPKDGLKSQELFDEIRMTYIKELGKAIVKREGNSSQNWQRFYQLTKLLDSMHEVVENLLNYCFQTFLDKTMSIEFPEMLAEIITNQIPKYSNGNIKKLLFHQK
Outline: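 Competition fluorescence polarisation: 0.5 nM GS Red labelled glucocorticoid and 1 nM recombinant human GR with 8-point half-log compound series, 1% DMSO, 4 h room temperature, potassium phosphate pH 7.4 buffer with molybdate, EDTA, DTT. Affinity derived from the drop in polarisation, normalised to blank wells.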

[2] = tested on: induction of TAT by dexamethasone in HepG2 cells; test: HepG2 tyrosine aminotransferase (TAT) assay; format: cell-based, human; settings: HepG2 cells, challenge of 100 nM dexamethasone; Ki from IC50 by Cheng and Prusoff equation

Ki [1] [nM]	Structure (SMILES)	Ki [2] [nM]
> 1	Cn1nncc1S(=O)(=O)N1CCC2=Cc3c(cnn3-c3ccc(F)cc3)C[C@]2(C(=O)c2cc(C(F)(F)F)ccn2)C1 [Example 11CF, (R)-(1-(4-fluorophenyl)-6-((1-methyl-1H-1,2,3-triazol-5-yl)sulfonyl)-4,4a,5,6,7,8-hexahydro-1H-pyrazolo[3,4-g]isoquinolin-4a-yl)(4-(trifluoromethyl)pyridin-2-yl)methanone]	20 to 100
< 0.5	Cn1cc(S(=O)(=O)N2CCC3=Cc4c(cnn4-c4ccc(F)cc4)C[C@]3(C(=O)c3cc(C(F)(F)F)ccn3)C2)nn1 [Example 11CG, (R)-(1-(4-fluorophenyl)-6-((1-methyl-1H-1,2,3-triazol-4-yl)sulfonyl)-4,4a,5,6,7,8-hexahydro-1H-pyrazolo[3,4-g]isoquinolin-4a-yl)(4-(trifluoromethyl)pyridin-2-yl)methanone]	< 20
< 0.5	CCn1ncc(S(=O)(=O)N2CCC3=Cc4c(cnn4-c4ccc(F)cc4)C[C@]3(C(=O)c3ccccn3)C2)n1 [Example 11CH, (R)-(6-((2-ethyl-2H-1,2,3-triazol-4-yl)sulfonyl)-1-(4-fluorophenyl)-4,4a,5,6,7,8-hexahydro-1H-pyrazolo[3,4-g]isoquinolin-4a-yl)(pyridin-2-yl)methanone]	< 20
> 1	CCn1nncc1S(=O)(=O)N1CCC2=Cc3c(cnn3-c3ccc(F)cc3)C[C@]2(C(=O)c2ccccn2)C1 [Example 11CI, (R)-(6-((1-ethyl-1H-1,2,3-triazol-5-yl)sulfonyl)-1-(4-fluorophenyl)-4,4a,5,6,7,8-hexahydro-1H-pyrazolo[3,4-g]isoquinolin-4a-yl)(pyridin-2-yl)methanone]	20 to 100
< 0.5	CCn1cc(S(=O)(=O)N2CCC3=Cc4c(cnn4-c4ccc(F)cc4)C[C@]3(C(=O)c3ccccn3)C2)nn1 [Example 11CJ, (R)-(6-((1-ethyl-1H-1,2,3-triazol-4-yl)sulfonyl)-1-(4-fluorophenyl)-4,4a,5,6,7,8-hexahydro-1H-pyrazolo[3,4-g]isoquinolin-4a-yl)(pyridin-2-yl)methanone]	20 to 100
< 0.5	CCn1ncc(S(=O)(=O)N2CCC3=Cc4c(cnn4-c4ccc(F)cc4)C[C@]3(C(=O)c3cc(C(F)(F)F)ccn3)C2)n1 [Example 11CK, (R)-(6-((2-ethyl-2H-1,2,3-triazol-4-yl)sulfonyl)-1-(4-fluorophenyl)-4,4a,5,6,7,8-hexahydro-1H-pyrazolo[3,4-g]isoquinolin-4a-yl)(4-(trifluoromethyl)pyridin-2-yl)methanone]	< 20
> 1	CCn1nncc1S(=O)(=O)N1CCC2=Cc3c(cnn3-c3ccc(F)cc3)C[C@]2(C(=O)c2cc(C(F)(F)F)ccn2)C1 [Example 11CL, (R)-(6-((1-ethyl-1H-1,2,3-triazol-5-yl)sulfonyl)-1-(4-fluorophenyl)-4,4a,5,6,7,8-hexahydro-1H-pyrazolo[3,4-g]isoquinolin-4a-yl)(4-(trifluoromethyl)pyridin-2-yl)methanone]	20 to 100
< 0.5	CCn1cc(S(=O)(=O)N2CCC3=Cc4c(cnn4-c4ccc(F)cc4)C[C@]3(C(=O)c3cc(C(F)(F)F)ccn3)C2)nn1 [Example 11CM, (R)-(6-((1-ethyl-1H-1,2,3-triazol-4-yl)sulfonyl)-1-(4-fluorophenyl)-4,4a,5,6,7,8-hexahydro-1H-pyrazolo[3,4-g]isoquinolin-4a-yl)(4-(trifluoromethyl)pyridin-2-yl)methanone]	< 20
< 0.5	CCCn1ncc(S(=O)(=O)N2CCC3=Cc4c(cnn4-c4ccc(F)cc4)C[C@]3(C(=O)c3ccccn3)C2)n1 [Example 11CN, (R)-(1-(4-fluorophenyl)-6-((2-propyl-2H-1,2,3-triazol-4-yl)sulfonyl)-4,4a,5,6,7,8-hexahydro-1H-pyrazolo[3,4-g]isoquinolin-4a-yl)(pyridin-2-yl)methanone]	< 20
> 1	CCCn1nncc1S(=O)(=O)N1CCC2=Cc3c(cnn3-c3ccc(F)cc3)C[C@]2(C(=O)c2ccccn2)C1 [Example 11CO, (R)-(1-(4-fluorophenyl)-6-((1-propyl-1H-1,2,3-triazol-5-yl)sulfonyl)-4,4a,5,6,7,8-hexahydro-1H-pyrazolo[3,4-g]isoquinolin-4a-yl)(pyridin-2-yl)methanone]	20 to 100
< 0.5	CCCn1cc(S(=O)(=O)N2CCC3=Cc4c(cnn4-c4ccc(F)cc4)C[C@]3(C(=O)c3ccccn3)C2)nn1 [Example 11CP, (R)-(1-(4-fluorophenyl)-6-((1-propyl-1H-1,2,3-triazol-4-yl)sulfonyl)-4,4a,5,6,7,8-hexahydro-1H-pyrazolo[3,4-g]isoquinolin-4a-yl)(pyridin-2-yl)methanone]	< 20
< 0.5	CCCn1ncc(S(=O)(=O)N2CCC3=Cc4c(cnn4-c4ccc(F)cc4)C[C@]3(C(=O)c3cscn3)C2)n1 [Example 11CQ, (R)-(1-(4-fluorophenyl)-6-((2-propyl-2H-1,2,3-triazol-4-yl)sulfonyl)-4,4a,5,6,7,8-hexahydro-1H-pyrazolo[3,4-g]isoquinolin-4a-yl)(thiazol-4-yl)methanone]	< 20
0.5 to 1	CCCn1nncc1S(=O)(=O)N1CCC2=Cc3c(cnn3-c3ccc(F)cc3)C[C@]2(C(=O)c2cscn2)C1 [Example 11CR, (R)-(1-(4-fluorophenyl)-6-((1-propyl-1H-1,2,3-triazol-5-yl)sulfonyl)-4,4a,5,6,7,8-hexahydro-1H-pyrazolo[3,4-g]isoquinolin-4a-yl)(thiazol-4-yl)methanone]	20 to 100
< 0.5	CCCn1cc(S(=O)(=O)N2CCC3=Cc4c(cnn4-c4ccc(F)cc4)C[C@]3(C(=O)c3cscn3)C2)nn1 [Example 11CS, (R)-(1-(4-fluorophenyl)-6-((1-propyl-1H-1,2,3-triazol-4-yl)sulfonyl)-4,4a,5,6,7,8-hexahydro-1H-pyrazolo[3,4-g]isoquinolin-4a-yl)(thiazol-4-yl)methanone]	< 20
< 0.5	CC(C)n1ncc(S(=O)(=O)N2CCC3=Cc4c(cnn4-c4ccc(F)cc4)C[C@]3(C(=O)c3ccccn3)C2)n1 [Example 11CT, (R)-(1-(4-fluorophenyl)-6-((2-isopropyl-2H-1,2,3-triazol-4-yl)sulfonyl)-4,4a,5,6,7,8-hexahydro-1H-pyrazolo[3,4-g]isoquinolin-4a-yl)(pyridin-2-yl)methanone]	< 20
0.5 to 1	CC(C)n1nncc1S(=O)(=O)N1CCC2=Cc3c(cnn3-c3ccc(F)cc3)C[C@]2(C(=O)c2ccccn2)C1 [Example 11CU, (R)-(1-(4-fluorophenyl)-6-((1-isopropyl-1H-1,2,3-triazol-5-yl)sulfonyl)-4,4a,5,6,7,8-hexahydro-1H-pyrazolo[3,4-g]isoquinolin-4a-yl)(pyridin-2-yl)methanone]	20 to 100
< 0.5	CC(C)n1cc(S(=O)(=O)N2CCC3=Cc4c(cnn4-c4ccc(F)cc4)C[C@]3(C(=O)c3ccccn3)C2)nn1 [Example 11CV, (R)-(1-(4-fluorophenyl)-6-((1-isopropyl-1H-1,2,3-triazol-4-yl)sulfonyl)-4,4a,5,6,7,8-hexahydro-1H-pyrazolo[3,4-g]isoquinolin-4a-yl)(pyridin-2-yl)methanone]	20 to 100
< 0.5	CCn1nccc1S(=O)(=O)N1CCC2=Cc3c(cnn3-c3ccc(F)cc3)C[C@]2(C(=O)c2cscn2)C1 [Example 11CW, (R)-(6-((1-ethyl-1H-pyrazol-5-yl)sulfonyl)-1-(4-fluorophenyl)-4,4a,5,6,7,8-hexahydro-1H-pyrazolo[3,4-g]isoquinolin-4a-yl)(thiazol-4-yl)methanone]	20 to 100
< 0.5	CCCn1cc(S(=O)(=O)N2CCC3=Cc4c(cnn4-c4ccc(F)cc4)C[C@]3(C(=O)c3cc(C(F)(F)F)ccn3)C2)cn1 [Example 11CX, (R)-(1-(4-fluorophenyl)-6-((1-propyl-1H-pyrazol-4-yl)sulfonyl)-4,4a,5,6,7,8-hexahydro-1H-pyrazolo[3,4-g]isoquinolin-4a-yl)(4-(trifluoromethyl)pyridin-2-yl)methanone]	< 20
0.5 to 1	Cn1cc(S(=O)(=O)N2CCC3=Cc4c(cnn4-c4ccc(F)cc4)C[C@]3(C(=O)c3cscn3)C2)cn1 [Example 11CY, (R)-(1-(4-fluorophenyl)-6-((1-methyl-1H-pyrazol-4-yl)sulfonyl)-4,4a,5,6,7,8-hexahydro-1H-pyrazolo[3,4-g]isoquinolin-4a-yl)(thiazol-4-yl)methanone]	20 to 100
